What was measured:
[1] = Affinity for immobilized heparin (NaCl elution from heparin column); type: binding; conditions: TSK-heparin column
Description: Cells from 1 liter cultures are harvested by centrifugation, resuspended in 30 ml of 50 mM Tris-HCl, pH 7.5 containing 0.1 mM EDTA and 0.6M NaCl, and disrupted by treatment with lysozyme (10 μg/ml) for 20 min at 4° C. followed by sonication (6×30 sec pulses). The lysates are clarified by centrifugation (10,000×g; 20 min) and the supernatant solutions incubated with 5 ml of hydrated heparin Sepharose (Pharmacia/LKB) at 4° C. for 1 hour with constant rotation. The resin is isolated by filtration on 0.8 μm filter apparatus (Nalgene), washed extensively with 10 mM Tris-HCl pH 7.4 containing 0.6M NaCl and bound protein eluted with Tris buffer containing 3M NaCl (25 ml). The 3M NaCl eluent is diluted 6-fold with Tris buffer and loaded onto a TSK heparin 5PW column (0.21×15 cm; The Nest Group, MA) and the column developed using a linear NaCl gradient (0.6 to 2M) in 90 min at a flow rate of […].
NaCl elution from heparin-Sepharose® is about 0.7M NaCl, compared with 1.4M NaCl for the wild-type protein. The molarity of NaCl required to elute the LK mutant is similar to that required to elute FGF-7.

[2] = system: bovine vascular endothelial cells derived from adult aortic arch; test: Mitogenic activity, endothelial cell proliferation assay; type: cell-based; conditions: 5 days in culture
Description: The mitogenic activity of FGF-2, FGF-2LI and FGF-2LA are determined using bovine vascular endothelial cells derived from adult aortic arch as previously described (Gospardarowicz, D., et al., Proc. Nat. Acad. Sci. 81: 6963-6967 (1984)). Briefly, cells are seeded at an initial density of 0.8×10^4 cells per 24-well plate in 0.5 ml Dulbecco's modified Eagle's medium (DMEM) containing 10% calf serum (Hyclone, Logan, Utah) supplemented with penicillin (100 units/ml), streptomycin (100 ug/ml) and L-glutamine (2 mM). Two hours after plating, 20 ul aliquots of serial dilutions of FGF-2 and the mutants in DMEM are added. Inhibition of FGF-2-stimulated growth was determined at a fixed concentration of FGF-2, while that of the mutant proteins is varied. After 5 days in culture, duplicate plates are trypsinized and cell densities determined by cell counting in a Coulter counter. Determinations are conducted in duplicate.

[3] = system: cell-associated urokinase-type plasminogen activator (uPA) activity in ABAE cells; test: Urokinase-type plasminogen activator induction in ABAE cells; type: cell-based, bovine; conditions: 24 hours, compared with FGF-2
Description: Urokinase-type plasminogen activator induction by the FGF mutants is evaluated. Adult bovine aortic endothelial (ABAE) cells are seeded at 20,000 cells/well in 96-well plates and maintained in DMEM containing 10% calf serum (Hyclone, Logan, Utah) supplemented with penicillin (100 units/ml), streptomycin (100 μg/ml) and L-glutamine (2 mM) and different concentrations of FGF-2 or mutants. After 24 hours, the cells are washed with phosphate-buffered saline and lysed in 60 mM Tris-HCl, pH 8.5, containing 0.05% Triton® X-100. Cell-associated urokinase-type plasminogen activator (uPA) activity is measured as described by Presta, et al., cited above, using the plasmin chromogenic substrate D-norleucyl-hexahydrotyrosyllysine p-nitroanilide acetate (American Diagnostics, Greenwich, Conn.). Cell-associated protein concentrations are determined using Coomassie blue binding to protein. The results are plotted in FIG. 5.

[4] = system: FGFR2(IIIb) (FGF-7 or KGF receptor); test: Competition binding to soluble FGFR2(IIIb) (displacement of 125I-FGF-7); design: species or system murine
Description: Binding of FGF proteins to different FGF receptors are determined in this example, by measuring the degree of competition for binding to different types of FGF-receptor proteins between a radioiodinated FGF protein and various unlabelled proteins, or by the direct binding of radioiodinated FGF's to various receptor proteins. Binding studies are confirmed by chemical cross-linking of the radioiodinated FGF to soluble receptors in the presence and absence of excess unlabelled FGF.
Soluble FGF receptor proteins are constructed by cloning of the extracellular region of murine FGF receptor 1 (FGFR-1; flg), FGF receptor 2 (FGFR-2; bek) or the KGF receptor (FGFR(IIIb); K-sam) into the alkaline phosphatase-tag expression vector, which encodes for a secreted form of placental alkaline phosphatase (AP). The FGF receptor alkaline phosphatase (FRAP) plasmids are cotransfected into NIH 3T3 cells by electroporation with a selectable neomycin resistance gene. Clonies are selected in G418 (600 μg/ml) and screened for secreted AP enzyme activity in the conditioned medium. Clones of each receptor which produced a high level of AP activity (2 to 4 A405 units/min/ml) are then used to produce conditioned medium for binding assays.
Components of the soluble receptor binding reaction mixture include FRAP-conditioned medium (0.24 OD units/min), 2 ng/ml^125 I-FGFs and 200 ng/ml heparin. The FGF:heparin:FRAP terniary complex is immunoprecipitated with 20 μl of a 1:1 slurry of anti-AP monoclonal antibodies coupled to protein A Sepharose®. All components are mixed at room temperature. The total volume is adjusted to 200 μl by addition of DMEM containing 0.1% bovine serum albumin. Binding is allowed to proceed for 1 to 2 hours at 24° C., after which time bound receptor complex or the ligand is recovered by centrifugation at 4° C. (10 s at 2,000×g). The pelleted material is washed twice with 500 μl of an ice cold buffer containing HEPES (20 mM), NaCl (150 mM), glycerol (10%) and Triton® X-100 (1%). ^125 I-FGF binding is quantitated by counting of the samples in a gamma counter (LKB). Alternatively, AP enzyme activity of the FRAP protein is determined by transferring the FRAP receptor bound to […] to a flat-bottom microtiter plate in a volume of 50 μl of PBS. The reaction is initiated by addition of substrate (50 μl of 2× solution of AP assay buffer containing 2M diethanoiamine, 1 mM MgCl2, 20 mM homoarginine and 12 mM p-nitrophenyl phosphate). The reaction is followed at room temperature at 405 nm in a kinetic microplate reader.

Substance | NaCl concentration at elution from TSK-heparin column [1] | Mitogenic potency compared with wild-type factor [2] | Capability to induce urokinase-type plasminogen activator [3] | Binding to FGFR2(IIIb), times less than that of FGF-7 or FGF-1 [4] | Mitogenic potency, times less potent than FGF-2 [2] | Binding to soluble FGFR2(IIIb) (competition with 125I-FGF-7) ([4]; 200 ng/ml heparin)
FGF-2LA: human FGF-2 with loop residues 118-122 replaced by Lys-Lys-His-Ala-Glu-Lys-His from bovine FGF-1 (SEQ ID NO 16) (KKHAEKH; printed: Lys-Lys-His-Ala-Glu-Lys-His) | about 1.5 M | as potent as the wild-type factor | significantly reduced | about 5 times | – | –
FGF-2LI: human FGF-2 with loop residues 118-122 replaced by Ala-Gln-Phe-Pro-Asn from human interleukin-1β (SEQ ID NO 15) | about 1.5 M | – | significantly reduced | – | 5 to 10 times | do not bind

From patent US5491220A, “Surface loop structural analogues of fibroblast growth factors” (Yeda Research and Development Co., Ltd., priority 1994, dated 1996)
